Experimental data taken from ChEMBL document CHEMBL1154773, “Thiosemicarbazones from the old to new: iron chelators that are more than just ribonucleotide reductase inhibitors” (J Med Chem, 2009).
One block for each compound: values may come before it.

Columns and labels:
[1] = system: SK-N-MC; experiment: Antiproliferative activity against human SK-N-MC cells by MTT assay; format: functional, cell-based
[2] = Toxicity in iv dosed CD2F1 hybrid mouse assessed as maximum tolerated dose administered BID at an interval of 6 hrs for 5 days a week over 2 weeks; format: organism-based; details: in vivo
[3] = system: M109; experiment: Antitumor activity against mouse M109 cells implanted in CD2F1 hybrid mouse assessed as reduction of tumor weight at 0.4 mg/kg, iv administered 4 days after implantation BID for 5 days measured on day 12 after implantation relative to control; format: functional; parameters: scale not given: the % may be the effect or the level left
[4] = system: SK-MEL-28; experiment: Antitumor activity against human SK-MEL-28 cells implanted in nude mouse assessed as reduction in tumor growth at 0.4 mg/kg/day measured up to 7 weeks relative to control; format: functional; parameters: scale not given: the % may be the effect or the level left
[5] = system: SK-N-MC; experiment: Iron chelating activity in human SK-N-MC cells assessed as cellular iron efflux at 25 uM after 3 hrs relative to control; format: functional
[6] = system: SK-N-MC; experiment: Effect on iron metabolism in human SK-N-MC cells assessed as cellular iron uptake from transferrin at 25 uM after 3 hrs in presence of pronase relative to control; format: functional
[7] = system: SK-N-MC; experiment: cells; details: Homo sapiens, 72 h
Description: Antiproliferative activity against human SK-N-MC cells after 72 hrs by MTT assay

[8] = system: SK-N-MC; experiment: Antiproliferative activity against human SK-N-MC cells after 96 hrs by MTT assay; format: functional, cell-based
[9] = system: SK-N-MC; experiment: Antiproliferative activity against human SK-N-MC cells; format: functional, cell-based
[10] = system: MRC5; experiment: Antiproliferative activity against human MRC5 cells after 72 hrs by MTT assay; format: cell-based; details: MRC5, 72 h
[11] = system: CHP-126; experiment: Antitumor activity against human CHP126 cells at 60 uM after 72 hrs; format: functional
[12] = Antitumor activity against human CHP100 cells at 60 uM after 72 hrs; format: functional
[13] = system: Rattus norvegicus; experiment: Iron chelating activity in rat assessed as faecal iron excretion at 25 to 100 mg/kg, po administered as single dose relative to basal level; format: functional, Feces; details: dose mg/kg 25-100
[14] = system: M109; experiment: Antitumor activity against mouse M109 cells implanted in CD2F1 hybrid mouse assessed as reduction of tumor weight at 6 mg/kg, iv administered 4 days after implantation BID for 5 days measured on day 12 after implantation relative to control; format: functional; parameters: scale not given: the % may be the effect or the level left

IC50 [1]: 1000 nM
Compound: O=C(N/N=C/c1ccccn1)c1cccs1

IC50 [1]: 1000 nM
Compound: O=C(N/N=C(\c1ccccc1)c1ccccn1)c1ccccc1

Compound: CN(C)C(=S)NN=C(c1ccccn1)c1ccccn1
MTD at 2 weeks [2]: 0.4 mg/kg
Activity [3]: 47%
Activity [4]: 8%
Activity [5]: 47%
Activity [6]: 9%
IC50 [7]: 30 nM

IC50 [8]: 1000 nM
IC50 [9]: 300 nM
IC50 [7]: 300 nM
Compound: O=C(N/N=C/c1c(O)ccc2ccccc12)c1ccncc1

IC50 [7]: 500 nM
Compound: NC(=S)N/N=C/c1c(O)ccc2ccccc12
IC50 [10]: > 25000 nM

IC50 [9]: 22000 nM
IC50 [7]: 5000 nM
Compound: CC(=O)N(O)CCCCCNC(=O)CCC(=O)N(O)CCCCCNC(=O)CCC(=O)N(O)CCCCCN [DEFEROXAMINE]
Activity [11]: 80%
Activity [12]: 80%

Compound: Cc1ncc(CO)c(/C=N/NC(=O)c2ccncc2)c1O [PYRIDOXAL ISONICOTINOYL HYDRAZONE]
fold change (FC) [13]: 8

Compound: NC(=S)N/N=C/c1ncccc1N [TRIAPINE]
MTD at 2 weeks [2]: 6 mg/kg
Activity [14]: 10%
